Reference: PubChem BioAssay (NCI)
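Tested at 5 concentrations; 48 h exposure; 96-well plates; endpoints linearly interpolated, else capped at highest concentration. Here, GI50 denotes the concentration required for 50% inhibition of growth. TGI denotes the concentration required for complete inhibition of growth.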

Key:
Experiment in all cases: DTP human tumour cell line panel, 48 h
[1] = system: NCI-H23 lung
[2] = system: RPMI-8226 leukemia
[3] = system: SR leukemia
[4] = system: HT29 colon
[5] = system: M14 melanoma
[6] = system: KM12 colon
[7] = system: A498 renal
[8] = system: SNB-75 CNS
[9] = system: NCI/ADR-RES ovarian
[10] = system: HS 578T breast
[11] = system: COLO 205 colon
[12] = system: NCI-H460 lung
[13] = system: OVCAR-3 ovarian
[14] = system: SW-620 colon
[15] = system: EKVX NSCLC
[16] = system: NCI-H522 lung
[17] = system: RXF 393 renal
[18] = system: HCT-116 colon
[19] = system: NCI-H226 lung
[20] = system: HCT-15 colon
[21] = system: OVCAR-5 ovarian
[22] = system: HOP-62 NSCLC
[23] = system: LOX IMVI melanoma
[24] = system: SK-MEL-5 melanoma
[25] = system: BT-549 breast
[26] = system: SF-268 CNS
[27] = system: K-562 leukemia
[28] = system: UO-31 renal
[29] = system: PC-3 prostate
[30] = system: UACC-257 melanoma
[31] = system: 786-0 renal
[32] = system: OVCAR-8 ovarian
[33] = system: TK-10 renal
[34] = system: SNB-19 CNS
[35] = system: IGROV1 ovarian
[36] = system: CAKI-1 renal
[37] = system: HOP-92 NSCLC
[38] = system: HCC-2998 colon
[39] = system: MDA-MB-435
[40] = system: SN12C renal
[41] = system: ACHN renal
[42] = system: SF-539 CNS
[43] = system: SK-MEL-2 melanoma
[44] = system: HL-60(TB) leukemia
[45] = system: SF-295 CNS
[46] = system: MDA-MB-231 breast
[47] = system: MCF7 breast
[48] = system: DU-145 prostate
[49] = system: MALME-3M melanoma
[50] = system: SK-MEL-28 melanoma
[51] = system: OVCAR-4 ovarian
[52] = system: SK-OV-3 ovarian
[53] = system: U251 CNS
[54] = system: A549 NSCLC
[55] = system: UACC-62 melanoma

**Q.** For `COc1ccc(NC2=C(Cl)C(=O)C(C)=C(C)C2=O)cc1`, which GI50 [1] is on record?
**A.** 14.8 µM

**Q.** What about the TGI [1] of the same compound?
**A.** 55 µM

**Q.** And the GI50 [2]?
**A.** 2230 nM

**Q.** And the TGI [2]?
**A.** 5.69 µM

**Q.** And the GI50 [3]?
**A.** 2370 nM

**Q.** And the TGI [3]?
**A.** 8.06 µM

**Q.** What about the GI50 [4] of the same compound?
**A.** 23.5 µM

**Q.** And the TGI [4]?
**A.** 54.1 µM

**Q.** What about the GI50 [5] of the same compound?
**A.** 12 µM

**Q.** What about the TGI [5] of the same compound?
**A.** 26.6 µM

**Q.** What about the GI50 [6] of the same compound?
**A.** 3.75 µM

**Q.** What about the TGI [6] of the same compound?
**A.** 44.3 µM

**Q.** What about the GI50 [7] of the same compound?
**A.** 18 µM

**Q.** What about the TGI [7] of the same compound?
**A.** 47.2 µM

**Q.** And the GI50 [8]?
**A.** 4.49 µM

**Q.** And the TGI [8]?
**A.** 19.1 µM

**Q.** What about the GI50 [9] of the same compound?
**A.** 2890 nM

**Q.** And the TGI [9]?
**A.** 9.87 µM

**Q.** What about the GI50 [10] of the same compound?
**A.** 17.4 µM

**Q.** What about the TGI [10] of the same compound?
**A.** 72.4 µM

**Q.** And the GI50 [11]?
**A.** 19.2 µM

**Q.** What about the TGI [11] of the same compound?
**A.** 38.8 µM

**Q.** What about the GI50 [12] of the same compound?
**A.** 25.5 µM

**Q.** And the TGI [12]?
**A.** > 100 µM

**Q.** And the GI50 [13]?
**A.** 2120 nM

**Q.** And the TGI [13]?
**A.** 4.53 µM

**Q.** What about the GI50 [14] of the same compound?
**A.** 3.92 µM

**Q.** What about the TGI [14] of the same compound?
**A.** 18.9 µM

**Q.** What about the GI50 [15] of the same compound?
**A.** 1790 nM

**Q.** What about the TGI [15] of the same compound?
**A.** 3.43 µM

**Q.** What about the GI50 [16] of the same compound?
**A.** 13.3 µM

**Q.** What about the TGI [16] of the same compound?
**A.** 29.5 µM

**Q.** And the GI50 [17]?
**A.** 9.13 µM

**Q.** And the TGI [17]?
**A.** 21.4 µM

**Q.** And the GI50 [18]?
**A.** 2000 nM

**Q.** What about the TGI [18] of the same compound?
**A.** 4.37 µM

**Q.** What about the GI50 [19] of the same compound?
**A.** 12.3 µM

**Q.** What about the TGI [19] of the same compound?
**A.** 27.6 µM

**Q.** What about the GI50 [20] of the same compound?
**A.** 13.7 µM

**Q.** What about the TGI [20] of the same compound?
**A.** 27.9 µM

**Q.** And the GI50 [21]?
**A.** 16.8 µM

**Q.** And the TGI [21]?
**A.** 35.7 µM

**Q.** What about the GI50 [22] of the same compound?
**A.** 12.2 µM

**Q.** And the TGI [22]?
**A.** 25.4 µM

**Q.** And the GI50 [23]?
**A.** 1790 nM

**Q.** What about the TGI [23] of the same compound?
**A.** 3.59 µM

**Q.** And the GI50 [24]?
**A.** 6.45 µM

**Q.** And the TGI [24]?
**A.** 19.1 µM

**Q.** And the GI50 [25]?
**A.** 13.3 µM

**Q.** And the TGI [25]?
**A.** 26.6 µM

**Q.** And the GI50 [26]?
**A.** 11.4 µM

**Q.** What about the TGI [26] of the same compound?
**A.** 52.2 µM

**Q.** What about the GI50 [27] of the same compound?
**A.** 2580 nM

**Q.** What about the TGI [27] of the same compound?
**A.** 9.59 µM

**Q.** What about the GI50 [28] of the same compound?
**A.** 11.1 µM

**Q.** And the TGI [28]?
**A.** 23.1 µM

**Q.** And the GI50 [29]?
**A.** 4.51 µM

**Q.** And the TGI [29]?
**A.** 20.6 µM

**Q.** And the GI50 [30]?
**A.** 1860 nM

**Q.** And the TGI [30]?
**A.** 3.96 µM

**Q.** What about the GI50 [31] of the same compound?
**A.** 18.7 µM

**Q.** And the TGI [31]?
**A.** 34 µM

**Q.** What about the GI50 [32] of the same compound?
**A.** 1840 nM

**Q.** And the TGI [32]?
**A.** 3.84 µM

**Q.** What about the GI50 [33] of the same compound?
**A.** 28.6 µM

**Q.** What about the TGI [33] of the same compound?
**A.** 52.1 µM

**Q.** What about the GI50 [34] of the same compound?
**A.** 10.3 µM

**Q.** What about the TGI [34] of the same compound?
**A.** 22.1 µM

**Q.** And the GI50 [35]?
**A.** 1780 nM

**Q.** What about the TGI [35] of the same compound?
**A.** 3.35 µM

**Q.** And the GI50 [36]?
**A.** 10.4 µM

**Q.** What about the TGI [36] of the same compound?
**A.** 22.2 µM

**Q.** What about the GI50 [37] of the same compound?
**A.** 1400 nM

**Q.** And the TGI [37]?
**A.** 2840 nM

**Q.** What about the GI50 [38] of the same compound?
**A.** 16.8 µM

**Q.** What about the TGI [38] of the same compound?
**A.** 31.7 µM

**Q.** And the GI50 [39]?
**A.** 2740 nM

**Q.** And the TGI [39]?
**A.** 7.13 µM

**Q.** And the GI50 [40]?
**A.** 12.7 µM

**Q.** What about the TGI [40] of the same compound?
**A.** 26.3 µM

**Q.** What about the GI50 [41] of the same compound?
**A.** 3.94 µM

**Q.** And the TGI [41]?
**A.** 13.6 µM

**Q.** And the GI50 [42]?
**A.** 15.5 µM

**Q.** What about the TGI [42] of the same compound?
**A.** 29.4 µM

**Q.** What about the GI50 [43] of the same compound?
**A.** 11 µM

**Q.** And the TGI [43]?
**A.** 24.1 µM

**Q.** And the GI50 [44]?
**A.** 2180 nM

**Q.** And the TGI [44]?
**A.** 5.54 µM

**Q.** What about the GI50 [45] of the same compound?
**A.** 10.3 µM

**Q.** What about the TGI [45] of the same compound?
**A.** 23.7 µM

**Q.** And the GI50 [46]?
**A.** 1990 nM

**Q.** What about the TGI [46] of the same compound?
**A.** 4.49 µM

**Q.** What about the GI50 [47] of the same compound?
**A.** 2350 nM

**Q.** What about the TGI [47] of the same compound?
**A.** 6.05 µM

**Q.** And the GI50 [48]?
**A.** 25.2 µM

**Q.** What about the TGI [48] of the same compound?
**A.** 69.8 µM

**Q.** What about the GI50 [49] of the same compound?
**A.** 14 µM

**Q.** What about the TGI [49] of the same compound?
**A.** 28.2 µM

**Q.** What about the GI50 [50] of the same compound?
**A.** 14.9 µM

**Q.** What about the TGI [50] of the same compound?
**A.** 28.8 µM

**Q.** And the GI50 [51]?
**A.** 1710 nM

**Q.** What about the TGI [51] of the same compound?
**A.** 3.1 µM

**Q.** What about the GI50 [52] of the same compound?
**A.** 10.8 µM

**Q.** And the TGI [52]?
**A.** 22.7 µM

**Q.** What about the GI50 [53] of the same compound?
**A.** 7.5 µM

**Q.** And the TGI [53]?
**A.** 21 µM

**Q.** And the GI50 [54]?
**A.** 21.7 µM

**Q.** What about the TGI [54] of the same compound?
**A.** > 100 µM

**Q.** What about the GI50 [55] of the same compound?
**A.** 10.6 µM

**Q.** What about the TGI [55] of the same compound?
**A.** 22.7 µM
